Measurements as given in patent US9073936B2, “Organic compounds” (INTRA-CELLULAR THERAPIES, INC., priority 2013, dated 2015).

What was measured:
PDE1 = PDE1 inhibition in vitro, IMAP phosphodiesterase assay; assay type: biochemical; settings: cGMP-fluorescein substrate, read-out: IC50 (PDE1 inhibitory activity)
Excerpt: (§1) Phosphodiesterase 1 (PDE1) is a calcium/calmodulin dependent phosphodiesterase enzyme that converts cyclic guanosine monophosphate (cGMP) to 5′-guanosine monophosphate (5′-GMP). PDE1 can also convert a modified cGMP substrate, such as the fluorescent molecule cGMP-fluorescein, to the corresponding GMP-fluorescein. The generation of GMP-fluorescein from cGMP-fluorescein can be quantitated, using, for example, the IMAP (Molecular Devices, Sunnyvale, Calif.) immobilized-metal affinity particle reagent.
(§2) Briefly, the IMAP reagent binds with high affinity to the free 5′-phosphate that is found in GMP-fluorescein and not in cGMP-fluorescein. The resulting GMP-fluorescein-IMAP complex is large relative to cGMP-fluorescein. Small fluorophores that are bound up in a large, slowly tumbling, complex can be distinguished from unbound fluorophores, because the photons emitted as they fluoresce retain the same polarity as the photons used to excite the fluorescence.
(§3) In the phosphodiesterase assay, cGMP-fluorescein, which cannot be bound to IMAP, and therefore retains little fluorescence polarization, is converted to GMP-fluorescein, which, when bound to IMAP, yields a large increase in fluorescence polarization (Δmp). Inhibition of phosphodiesterase, therefore, is detected as a decrease in Δmp.
Materials: All chemicals are available from Sigma-Aldrich (St. Louis, Mo.) except for IMAP reagents (reaction buffer, binding buffer, FL-GMP and IMAP beads), which are available from Molecular Devices (Sunnyvale, Calif.).
Assay: The following phosphodiesterase enzymes may be used: 3′,5′-cyclic-nucleotide-specific bovine brain phosphodiesterase (Sigma, St. Louis, Mo.) and recombinant full length human PDE1A and PDE1B (r-hPDE1A and r-hPDE1B, respectively) which may be produced e.g., in HEK or SF9 cells by one skilled in the art. The PDE1 enzyme is reconstituted with 50% glycerol to 2.5 U/ml. One unit of enzyme will hydrolyze 1.0 μmole of 3′,5′-cAMP to 5′-AMP per min at pH 7.5 at 30° C. […] 99 μl of diluted enzyme solution is added into each well in a flat bottom 96-well polystyrene plate to which 1 μl of test compound dissolved in 100% DMSO is added. The test compounds are mixed and pre-incubated with the enzyme for 10 min at room temperature.
(§4) The plate is incubated at room temperature for 1 hour to allow IMAP binding to proceed to completion, and then placed in an Envision multimode microplate reader (PerkinElmer, Shelton, Conn.) to measure the fluorescence polarization (Δmp).
(§5) A decrease in GMP concentration, measured as decreased Δmp, is indicative of inhibition of PDE activity.

rats = experiment: Novel Object Recognition assay; assay type: in vivo; settings: rat, PO, dosed 2 hours before T1, 24 h interval
Excerpt: To measure the cognition-enhancing effects of the compounds of the invention, the candidate compounds may be evaluated in a Novel Object Recognition (NOR) assay. This assay protocol is described in detail in Ennaceur et al., Behav. Brain Res. (1988) 31:47-59 and Prickaerts et al., Eur. J. Pharmacol. (1997) 337:125-136, the contents of each of which are incorporated by reference in their entirety. In this protocol, the rats are introduced to a chamber at time T1 and allowed to interrogate two identical “familiar objects” for six minutes. Twenty-four hours later, they are re-introduced to this chamber, where one of the familiar objects has been replaced with a novel object. The “discrimination index”, a measure of the time spent in close proximity to the novel over the familiar object, may then be measured. Since rodents will forget the original experiment at T1 within 4 hours, this test with a 24 h interval is a measure of strong cognitive enhancement.
This assay protocol can be modified in order to evaluate different phases of memory. There are three general phases of memory, namely, acquisition, consolidation and retrieval. In this modified protocol, the rats may be dosed with the candidate compound two hours before T1 and tested 24 h later without additional dosing. This is a test of the acquisition process. […]

C57BL/6 mice = experiment: Haloperidol induced catalepsy model (bar grip test); assay type: in vivo, mouse; settings: haloperidol 3 mg/Kg PO, step down latency
Excerpt: To evaluate the potential beneficial effects to motor defects present in schizophrenics treated with typical and atypical antipsychotic agents and in Parkinson's disease patients, the compounds of the invention may be tested in a reversal of catalepsy model in which motor freezing, or catalepsy, is induced by potent dopamine D2 receptor antagonists such as haloperidol or risperidone. The method uses the “bar grip test”, in which the front paws of the mouse are placed so as to grip a 3 mm-diameter, suspended wooden bar. A “step down latency” is measured by recording the time until the mouse removes its paws from the wooden bar to the floor surface. Catalepsy is a freezing of the musculature that prevents the mouse from moving off the bar. […]
A catalepsy score is recorded for each mouse at 2, 3, 4, and 6 hours after administration of drugs. […] The latency until the mouse steps both paws down from the bar to the floor surface (i.e., step down latency) is recorded up to 120 sec. […] If none of the 10 attempts are beyond 10 sec, the longest duration recorded is used as the catalepsy score. Otherwise, the initial cataleptic duration (>10 sec) is recorded during the 120 sec testing time. Mean step down latency is calculated for each treatment group.

[1] = Metabolism rates in human liver microsomes (stability); assay type: in vitro ADME; settings: pooled human liver microsomes, pH 7.5, 0.5 mg/ml protein, 1 μM test compound, NADPH, 37° C., read-out: T1/2 in human liver microsomes
Protocol: Pooled human liver microsomes (final protein concentration 0.5 mg/ml) are incubated with test compound (final concentration 1 μM) in the presence of a NADPH regenerating system. The final buffer composition is: 1 mM EDTA, 100 mM potassium phosphate pH 7.5. The reactions are initiated by addition of the cofactor NADPH, and terminated after a 0, 15, 30, 45 and 60 minute incubation at 37° C. by addition of cold acetonitrile containing the internal analysis standard. After centrifuging at 4000 rpm for 20 minutes at 4° C., the supernatant are transferred for analysis using HPLC/MS/MS to measure the disappearance of the test compound. The percentage of the test compound remaining over time is calculated relative to the zero time point. The intrinsic clearance rates were calculated based on percentage of compound remaining at the 15-60 min. time points.

[2] = target: recombinant full length human PDE1A (r-hPDE1A) (Homo sapiens (Human), UniProt P54750); experiment: PDE1 inhibition in vitro, IMAP phosphodiesterase assay (r-hPDE1A); assay type: biochemical
Excerpt: as §1, §2, §3
(§6) Materials: All chemicals are available from Sigma-Aldrich (St. Louis, Mo.) except for IMAP reagents (reaction buffer, binding buffer, FL-GMP and IMAP beads), which are available from Molecular Devices (Sunnyvale, Calif.). […]
as §4, with “The reaction is incubated in dark at room temperature for 15 min. […] The” for “The”
as §5

[3] = target: recombinant full length human PDE1B (r-hPDE1B) (Homo sapiens (Human), UniProt Q01064); experiment: PDE1 inhibition in vitro, IMAP phosphodiesterase assay (r-hPDE1B); assay type: biochemical
Excerpt: as §1, §2, §3, §6
as §4, with “The reaction is incubated in dark at room temperature for 15 min. […] The” for “The”
as §5

Row | IC50 (PDE1) [nM] | half-life at 1 μM [1] [h] | Ki [2] [nM] | Ki [3] [nM] | Compound | minimal effective dose, Novel Object Recognition (rats) [mg/kg] | minimal effective dose, catalepsy model (C57BL/6 mice) [mg/kg]
1 | ≤ 5 | – | 0.5 | 4 | CC(O)c1ccc(Cn2nc3c(c2Nc2ccc(F)cc2)C(=O)N(C)C2=NC(C)(C)CN23)cc1 (stereo not drawn) [Example 2, 7,8-Dihydro-2-(4-(1-hydroxyethyl)benzyl)-3-(4-fluorophenylamino)-5,7,7-trimethyl-[2H]-imidazo-[1,2-a]pyrazolo[4,3-e]pyrimidin-4(5H)-one] | – | –
2 | ≤ 5 | 1.3 | 0.3 | 4 | CC(=O)c1ccc(Cn2nc3c(c2Nc2ccc(F)c(F)c2)C(=O)N(C)C2=NC(C)(C)CN23)cc1 [Example 3, 7,8-Dihydro-2-(4-acetylbenzyl)-3-(3,4-difluorophenylamino)-5,7,7-trimethyl-[2H]-imidazo-[1,2-a]pyrazolo[4,3-e]pyrimidin-4(5H)-one] | – | –
3 | ≤ 5 | 1.12 | 0.1 | 0.4 | CC(=O)c1ccc(Cn2nc3c(c2Nc2ccc(F)c(C)c2)C(=O)N(C)C2=NC(C)(C)CN23)cc1 [Example 4, 7,8-Dihydro-2-(4-acetylbenzyl)-3-(4-fluoro-3-methylphenylamino)-5,7,7-trimethyl-[2H]-imidazo-[1,2-a]pyrazolo[4,3-e]pyrimidin-4(5H)-one] | – | –

Row | Compound | IC50 (PDE1) [nM] | half-life at 1 μM [1] [h] | Ki [2] [nM] | Ki [3] [nM] | minimal effective dose, Novel Object Recognition (rats) [mg/kg] | minimal effective dose, catalepsy model (C57BL/6 mice) [mg/kg]
4 | CC(=O)c1ccc(Cn2nc3c(c2Nc2ccc(F)cc2)C(=O)N(C)C2=NC(C)(C)CN23)cc1 [Example 1, 7,8-Dihydro-2-(4-acetylbenzyl)-3-(4-fluorophenylamino)-5,7,7-trimethyl-[2H]-imidazo-[1,2-a]pyrazolo[4,3-e]pyrimidin-4(5H)-one] | ≤ 5 | 2.85 | – | – | 0.1 | 0.1
